Assay results taken from patent publication US20060223888A1, “Valproic acid analogues and pharmaceutical composition thereof” (priority 2002, published 2006).

Assays:
[1] = tested on: PTZ-induced seizures; test: ED50 against PTZ-induced seizures, i.p.; assay type: in vivo; conditions: Rattus norvegicus, ip, male Sprague-Dawley rats (n = 8)
Source text: These compounds were investigated for anticonvulsant activity in mice^13 and rats (see results in Table 4) and found to be equivalent in potency to VPA.

[2] = Pharmacokinetics and tissue distribution (plasma, liver, brain) after i.p. administration; assay type: in vivo, male Sprague-Dawley rats; conditions: rat, FIG. 1, Table 5

For `CCC=C(CCC)C(=O)O` [(E)-2-ene VPA, 2-propylpent-2-enoic acid], the ED50 [1] was 185 mg/kg and the “Affinity for / accumulation in the liver (in words)” value [2] was “markedly reduced affinities for liver”.
Compound `O=C(O)/C=C/C=C1CCCC1` [Compound 41a, (2E)-4-Cyclopentylidenebut-2-enoic Acid] has a melting point of 112 to 114 °C.
In the case of `O=C(O)/C=C/C=C1CCCCC1` [Compound 41b, (2E)-4-Cyclohexylidenebut-2-enoic Acid], the melting point is reported as 132 to 134 °C.
For `O=C(O)/C=C/C=C1CCCCCC1` [Compound 41c, (2E)-4-Cycloheptylidenebut-2-enoic Acid], the melting point was 88 to 89 °C.
`O=C(O)/C=C/C=C1CCCCCCC1` [Compound 41d, (2E)-4-Cyclooctylidenebut-2-enoic Acid] gave a melting point of 114 to 116 °C.
Work on `O=C(O)/C=C\C=C1CCCC1` [Compound 42a, (2Z)-4-Cyclopentylidenebut-2-enoic Acid] yielded a melting point of 105 to 107 °C.
For `O=C(O)/C=C\C=C1CCCCC1` [Compound 42b, (2Z)-4-Cyclohexylidenebut-2-enoic Acid], the melting point was 121 to 123 °C.
Work on `O=C(O)/C=C\C=C1CCCCCC1` [Compound 42c, (2Z)-4-Cycloheptylidenebut-2-enoic Acid] yielded a melting point of 86 to 88 °C.
Work on `O=C(O)/C=C\C=C1CCCCCCC1` [Compound 42d, (2Z)-4-Cyclooctylidenebut-2-enoic Acid] yielded a melting point of 110 to 112 °C.
